How the values were obtained:
[1] = system: Oryza sativa, (L.) Tebonnet; test: Rice tolerance to post-transplant applications under flooded paddy conditions (Example 187), ORYSAT (Rice, Tebonnet); on herbicidal effect rating ORYSAT: meaning of each grade not given here
[2] = system: Echinochloa oryzoides (Ard.) Fritsch.; test: Preemergence weed control under flooded paddy conditions, ECHORC (Watergrass (Calif.)); type: in vivo; conditions: flooded paddy; on herbicidal effect rating, ECHORC: meaning of each grade not given here
Cyperus iria = test: Preemergence weed control under flooded paddy conditions, CYPIR (Rice Flatsedge); type: in vivo; conditions: flooded paddy; on herbicidal effect rating, CYPIR: meaning of each grade not given here
[3] = system: Monochoria vaginalis, Presl.; test: Preemergence weed control under flooded paddy conditions, MOOVA (Monochoria); type: in vivo; conditions: flooded paddy; on herbicidal effect rating, MOOVA: meaning of each grade not given here
Sagittaria pygmaea, L. = test: Preemergence weed control under flooded paddy conditions, SAGPY (Arrowhead (Pygmaea)); type: in vivo; conditions: flooded paddy; on herbicidal effect rating, SAGPY: meaning of each grade not given here
[4] = system: Cyperus serotinus, Rottb.; test: Preemergence weed control under flooded paddy conditions, CYPSE (Flatsedge); type: in vivo; on herbicidal effect rating, CYPSE: meaning of each grade not given here
[5] = 0.1250 kg/ha, rated three to four weeks after treatment
[6] = 0.2500 kg/ha, rated three to four weeks after treatment
[7] = 0.0313 kg/ha, preemergence weeds, rated three to four weeks after treatment
[8] = 0.0625 kg/ha, preemergence weeds, rated three to four weeks after treatment
[9] = 0.1250 kg/ha, preemergence weeds, rated three to four weeks after treatment
[10] = 0.2500 kg/ha, preemergence weeds, rated three to four weeks after treatment
[11] = Rate 0.0320 kg/ha, rated three to four weeks after treatment
[12] = Rate 0.0620 kg/ha, rated three to four weeks after treatment
[13] = Rate 0.1250 kg/ha, rated three to four weeks after treatment
[14] = Rate 0.2500 kg/ha, rated three to four weeks after treatment
[15] = Rate 0.0320 kg/ha, preemergence, rated three to four weeks after treatment
[16] = Rate 0.0620 kg/ha, preemergence, rated three to four weeks after treatment
[17] = Rate 0.1250 kg/ha, preemergence, rated three to four weeks after treatment
[18] = Rate 0.2500 kg/ha, preemergence, rated three to four weeks after treatment
[19] = Rate 0.5000 kg/ha, preemergence, rated three to four weeks after treatment
[20] = 0.0320 kg/ha, preemergence, rated three to four weeks after treatment
[21] = 0.0620 kg/ha, preemergence, rated three to four weeks after treatment
[22] = 0.1250 kg/ha, preemergence, rated three to four weeks after treatment
[23] = 0.2500 kg/ha, preemergence, rated three to four weeks after treatment
[24] = Rate 0.0320 kg/ha, preemergence, rated 3-4 weeks after treatment
[25] = Rate 0.0620 kg/ha, preemergence, rated 3-4 weeks after treatment
[26] = Rate 0.1250 kg/ha, preemergence, rated 3-4 weeks after treatment
[27] = Rate 0.2500 kg/ha, preemergence, rated 3-4 weeks after treatment
[28] = Rate 0.5000 kg/ha, preemergence, rated 3-4 weeks after treatment

Cn1c(C(F)(F)F)cc(=O)n(-c2ccc3snc(N4CCOCC4)c3c2)c1=O [Example 116, 1-Methyl-3-(3-morpholino-1,2-benzisothiazol-5-yl)-6-(trifluoromethyl)-2,4(1H,3H)-pyrimidinedione]
herbicidal effect rating, ORYSAT (rice tolerance) ([1]; 0.0313 kg/ha, rated three to four weeks after treatment): 0.0
herbicidal effect rating, ORYSAT (rice tolerance) ([1]; 0.0625 kg/ha, rated three to four weeks after treatment): 0.0
herbicidal effect rating, ORYSAT (rice tolerance) [1, 5]: 0.0
herbicidal effect rating, ORYSAT (rice tolerance) [1, 6]: 0.0
herbicidal effect rating, ECHORC [2, 7]: 0.0
herbicidal effect rating, ECHORC [2, 8]: 0.0
herbicidal effect rating, ECHORC [2, 9]: 0.0
herbicidal effect rating, ECHORC [2, 10]: 0.0
herbicidal effect rating, CYPIR (Cyperus iria; [7]): 0.0
herbicidal effect rating, CYPIR (Cyperus iria; [8]): 0.0
herbicidal effect rating, CYPIR (Cyperus iria; [9]): 0.0
herbicidal effect rating, CYPIR (Cyperus iria; [10]): 0.0
herbicidal effect rating, MOOVA [3, 7]: 0.0
herbicidal effect rating, MOOVA [3, 8]: 2.0
herbicidal effect rating, MOOVA [3, 9]: 8.0
herbicidal effect rating, MOOVA [3, 10]: 8.0
herbicidal effect rating, SAGPY (Sagittaria pygmaea, L.; [7]): 0.0
herbicidal effect rating, SAGPY (Sagittaria pygmaea, L.; [8]): 0.0
herbicidal effect rating, SAGPY (Sagittaria pygmaea, L.; [9]): 0.0
herbicidal effect rating, SAGPY (Sagittaria pygmaea, L.; [10]): 0.0
herbicidal effect rating, CYPSE [4, 7]: 0.0
herbicidal effect rating, CYPSE [4, 8]: 0.0
herbicidal effect rating, CYPSE [4, 9]: 0.0
herbicidal effect rating, CYPSE [4, 10]: 0.0

COC(=O)/C=C/c1nsc2ccc(-n3c(=O)cc(C(F)(F)F)n(C)c3=O)cc12 [Example 279, 1,2-Benzisothiazole-3-acrylic acid, 5-[3,6-dihydro-3-methyl-2,6-dioxo-4-(trifluoromethyl)-1(2H)-pyrimidinyl]-, methyl ester, (E)-]
ORYSAT herbicidal effect rating [1, 11]: 2.0
ORYSAT herbicidal effect rating [1, 12]: 3.0
ORYSAT herbicidal effect rating [1, 13]: 4.0
ORYSAT herbicidal effect rating [1, 14]: 4.0
ORYSAT herbicidal effect rating ([1]; Rate 0.5000 kg/ha, rated three to four weeks after treatment): 6.0
ECHORC herbicidal effect rating [2, 15]: 0.0
ECHORC herbicidal effect rating [2, 16]: 5.7
ECHORC herbicidal effect rating [2, 17]: 6.1
ECHORC herbicidal effect rating [2, 18]: 6.0
ECHORC herbicidal effect rating [2, 19]: 7.0
CYPIR herbicidal effect rating (Cyperus iria; [15]): 0.0
CYPIR herbicidal effect rating (Cyperus iria; [16]): 0.0
CYPIR herbicidal effect rating (Cyperus iria; [17]): 2.0
CYPIR herbicidal effect rating (Cyperus iria; [18]): 6.0
CYPIR herbicidal effect rating (Cyperus iria; [19]): 9.0
MOOVA herbicidal effect rating [3, 17]: 8.0
MOOVA herbicidal effect rating [3, 18]: 9.0
MOOVA herbicidal effect rating [3, 19]: 9.0
SAGPY herbicidal effect rating (Sagittaria pygmaea, L.; [15]): 0.0
SAGPY herbicidal effect rating (Sagittaria pygmaea, L.; [16]): 0.0
SAGPY herbicidal effect rating (Sagittaria pygmaea, L.; [17]): 0.0
SAGPY herbicidal effect rating (Sagittaria pygmaea, L.; [18]): 4.0
SAGPY herbicidal effect rating (Sagittaria pygmaea, L.; [19]): 9.0
CYPSE herbicidal effect rating [4, 15]: 0.0
CYPSE herbicidal effect rating [4, 16]: 0.0
CYPSE herbicidal effect rating [4, 17]: 0.0
CYPSE herbicidal effect rating [4, 19]: 5.0

C=CCOC(=O)C(C)(C)c1nsc2ccc(-n3c(=O)cc(C(F)(F)F)n(C)c3=O)cc12 [Example 491, 1,2-Benzisothiazole-3-acetic acid, 5-[3,6-dihydro-3-methyl-2,6-dioxo-4-(trifluoromethyl)-1(2H)-pyrimidinyl]-alpha,alpha-dimethyl-, allyl ester]
ORYSAT herbicidal rating (rice tolerance) ([1]; 0.0320 kg/ha, rated three to four weeks after treatment): 5.0
ORYSAT herbicidal rating (rice tolerance) ([1]; 0.0620 kg/ha, rated three to four weeks after treatment): 6.5
ORYSAT herbicidal rating (rice tolerance) [1, 5]: 8.0
ORYSAT herbicidal rating (rice tolerance) [1, 6]: 7.5
ECHORC herbicidal rating [2, 20]: 9.0
ECHORC herbicidal rating [2, 21]: 9.0
ECHORC herbicidal rating [2, 22]: 9.0
ECHORC herbicidal rating [2, 23]: 9.0
CYPIR herbicidal rating (Cyperus iria; [20]): 7.5
CYPIR herbicidal rating (Cyperus iria; [21]): 9.0
CYPIR herbicidal rating (Cyperus iria; [22]): 9.0
CYPIR herbicidal rating (Cyperus iria; [23]): 9.0
MOOVA herbicidal rating [3, 20]: 9.0
MOOVA herbicidal rating [3, 21]: 9.0
MOOVA herbicidal rating [3, 22]: 9.0
MOOVA herbicidal rating [3, 23]: 9.0
SAGPY herbicidal rating (Sagittaria pygmaea, L.; [20]): 5.0
SAGPY herbicidal rating (Sagittaria pygmaea, L.; [21]): 5.5
SAGPY herbicidal rating (Sagittaria pygmaea, L.; [22]): 9.0
SAGPY herbicidal rating (Sagittaria pygmaea, L.; [23]): 9.0
CYPSE herbicidal rating [4, 20]: 7.0
CYPSE herbicidal rating [4, 21]: 9.0
CYPSE herbicidal rating [4, 22]: 9.0
CYPSE herbicidal rating [4, 23]: 9.0

C=CS(=O)(=O)NC(=O)COc1ccc(C)cc1-c1nsc2ccc(-n3c(=O)cc(C(F)(F)F)n(C)c3=O)cc12 [Example 553, Acetamide, 2-{{2-{5-[3,6-dihydro-3-methyl-2,6-dioxo-4-(trifluoromethyl)-1(2H)-pyrimidinyl]-1,2-benzisothiazol-3-yl}-p-tolyl}oxy}-N-(vinylsulfonyl)-]
herbicidal effect rating ORYSAT ([1]; Rate 0.0320 kg/ha, rated 3-4 weeks after treatment): 3.0
herbicidal effect rating ORYSAT ([1]; Rate 0.0620 kg/ha, rated 3-4 weeks after treatment): 4.0
herbicidal effect rating ORYSAT ([1]; Rate 0.1250 kg/ha, rated 3-4 weeks after treatment): 4.0
herbicidal effect rating ORYSAT ([1]; Rate 0.2500 kg/ha, rated 3-4 weeks after treatment): 6.0
herbicidal effect rating ORYSAT ([1]; Rate 0.5000 kg/ha, rated 3-4 weeks after treatment): 4.0
herbicidal effect rating, ECHORC [2, 24]: 1.3
herbicidal effect rating, ECHORC [2, 25]: 2.1
herbicidal effect rating, ECHORC [2, 26]: 6.4
herbicidal effect rating, ECHORC [2, 27]: 9.0
herbicidal effect rating, ECHORC [2, 28]: 7.0
herbicidal effect rating, CYPIR (Cyperus iria; [24]): 2.0
herbicidal effect rating, CYPIR (Cyperus iria; [25]): 6.0
herbicidal effect rating, CYPIR (Cyperus iria; [26]): 7.0
herbicidal effect rating, CYPIR (Cyperus iria; [27]): 9.0
herbicidal effect rating, CYPIR (Cyperus iria; [28]): 4.0
herbicidal effect rating, MOOVA [3, 24]: 7.0
herbicidal effect rating, MOOVA [3, 25]: 9.0
herbicidal effect rating, MOOVA [3, 26]: 9.0
herbicidal effect rating, MOOVA [3, 27]: 9.0
herbicidal effect rating, MOOVA [3, 28]: 9.0
herbicidal effect rating, SAGPY (Sagittaria pygmaea, L.; [24]): 0.0
herbicidal effect rating, SAGPY (Sagittaria pygmaea, L.; [25]): 0.0
herbicidal effect rating, SAGPY (Sagittaria pygmaea, L.; [26]): 0.0
herbicidal effect rating, SAGPY (Sagittaria pygmaea, L.; [27]): 0.0
herbicidal effect rating, SAGPY (Sagittaria pygmaea, L.; [28]): 0.0
herbicidal effect rating, CYPSE [4, 24]: 0.0
herbicidal effect rating, CYPSE [4, 25]: 0.0
herbicidal effect rating, CYPSE [4, 27]: 2.0
herbicidal effect rating, CYPSE [4, 28]: 9.0

Cn1c(C(F)(F)F)cc(=O)n(-c2cc3c(CBr)nsc3cc2F)c1=O [Example 376, 2,4(1H,3H)-Pyrimidinedione, 3-[3-(bromomethyl)-6-fluoro-1,2-benzisothiazol-5-yl]-1-methyl-6-(trifluoromethyl)-]
herbicidal effect rating ORYSAT [1, 11]: 4.0
herbicidal effect rating ORYSAT [1, 12]: 6.0
herbicidal effect rating ORYSAT [1, 13]: 6.0
herbicidal effect rating ORYSAT [1, 14]: 8.5
herbicidal effect rating, ECHORC [2, 15]: 3.0
herbicidal effect rating, ECHORC [2, 16]: 5.5
herbicidal effect rating, ECHORC [2, 17]: 6.5
herbicidal effect rating, ECHORC [2, 18]: 9.0
herbicidal effect rating, CYPIR (Cyperus iria; [15]): 3.0
herbicidal effect rating, CYPIR (Cyperus iria; [16]): 8.0
herbicidal effect rating, CYPIR (Cyperus iria; [17]): 9.0
herbicidal effect rating, CYPIR (Cyperus iria; [18]): 9.0
herbicidal effect rating, MOOVA [3, 15]: 9.0
herbicidal effect rating, MOOVA [3, 16]: 9.0
herbicidal effect rating, MOOVA [3, 17]: 9.0
herbicidal effect rating, MOOVA [3, 18]: 9.0
herbicidal effect rating, SAGPY (Sagittaria pygmaea, L.; [15]): 8.0
herbicidal effect rating, SAGPY (Sagittaria pygmaea, L.; [16]): 8.5
herbicidal effect rating, SAGPY (Sagittaria pygmaea, L.; [17]): 9.0
herbicidal effect rating, SAGPY (Sagittaria pygmaea, L.; [18]): 9.0
herbicidal effect rating, CYPSE [4, 15]: 3.0
herbicidal effect rating, CYPSE [4, 16]: 4.0
herbicidal effect rating, CYPSE [4, 17]: 5.5
herbicidal effect rating, CYPSE [4, 18]: 8.0

Reference: patent EP0908457B1, “3-(1,2-benzisothiazol- and isoxazol-5-Y1)-2,4(1H,3H)-pyrimidinedione or thione and 3-(1,2-benzisothiazol- and isoxazol-5-y1)-4(3H)-pyrimidinone or thione herbicidal agents” (BASF AKTIENGESELLSCHAFT, priority 1997, dated 1999)
